Where two headings read alike, the source gives them in different places.
Columns and labels:
[1] = Single dose, randomized fed vs. fasted study of the effect of food on bioavailability (pharmacokinetics); format: in vivo, healthy subjects; details: for Relative bioavailability, AUC (tf) Ratio Estimate / Relative bioavailability, AUC(l) Ratio Estimate / Relative bioavailability, Cmax Ratio Estimate: fed vs fasted; for increase of Cmax relative to fasted state / increase of mean AUCs relative to fasted state: based on ratio estimates; for half-life: read-out: t½ (mean) (converted)
Protocol: A single dose, randomized, two-treatment (fed vs. fasted) study was conducted to assess the effect of food on bioavailability of a compound of the present invention (SCH 503034 or Compound Ia). A single oral dose of 600 mg. of compound of Formula Ia was administered to two groups of healthy subjects. Group A received the dose after an overnight 10-hour fast; Group B received the dose about twenty minutes after consuming a high fat breakfast of 850 calories having 53.8 g fat (57% of calories from fat) or low fat breakfast of 451 calories. Blood samples were collected immediately prior to dosing (time zero) and at times 0.5, 1, 1.5, 2, 2.5, 3, 4, 6, 8, 12, 24, 36, 48, and 72 hours post dose. Results of measurement of mean maximum concentration (Cmax) of compound of Formula Ia in serum in ng/ml are shown in Table 1 and FIG. 1 (graph of mean plasma concentration of the compound versus Time). Calculations of AUC(tf) (area under the curve at time final), AUC(I) (area under the curve extrapolated to infinity), t½ (time at which one-half of the compound has disappeared from the blood), Tmax (time at which maximum serum concentration is achieved), CL/F (clearance divided by bioavailability), and Vd/F (volume of distribution divided by bioavailability) are made according to standard formulas known to one skilled in the art of drug metabolism and pharmacokintics.

[2] = Serum levels after two weeks of 400 mg bid or tid dosing; format: in vivo, healthy subjects; details: 400 mg tid for two weeks; day 14
Protocol: Healthy subjects were dosed with two regimens of 400 mg. of a compound of Formula 1a, twice per day (bid) or three times per day (tid) for a period of two weeks. Blood samples were taken on day 14 in the morning at time zero (pre-dose) and at 12 hours post-dose (for the bid regimen) or 8 hours post-dose (for the tid regimen). As shown in the box plots, with tid dosing a metabolism effect is observed. Serum levels of the drug are higher at time zero, 8 hours after the previous evening dose, as compared to serum levels of the drug when measured 8 hours following the morning dose.

[3] = human, serum, po, 600 mg, single oral dose 600 mg, fasted, balanced data
[4] = human, serum, po, 600 mg, single oral dose 600 mg, fed (high fat diet), balanced data
[5] = human, serum, po, 600 mg, single oral dose 600 mg, fed (non fat diet), balanced data

Structure (SMILES): CC(C)(C)NC(=O)N[C@H](C(=O)N1C[C@H]2[C@@H]([C@H]1C(=O)NC(CC1CCC1)C(=O)C(N)=O)C2(C)C)C(C)(C)C (mixture of isomers) [SCH 503034]
- Relative bioavailability, AUC (tf) Ratio Estimate ([1]; compare B/A, balanced data): 317%
- Relative bioavailability, AUC(l) Ratio Estimate ([1]; compare B/A, balanced data): 276%
- Relative bioavailability, Cmax Ratio Estimate ([1]; compare B/A, balanced data): 223%
- Relative bioavailability, AUC (tf) Ratio Estimate ([1]; compare C/A, balanced data): 182%
- Relative bioavailability, AUC(l) Ratio Estimate ([1]; compare C/A, balanced data): 167%
- Relative bioavailability, Cmax Ratio Estimate ([1]; compare C/A, balanced data): 129%
- absorption lag time ([1]; fed state with high fat diet, in 8 of the 12 subjects who completed all three periods): 0.5 h
- absorption lag time ([1]; fed state with non fat diet, 7 subjects): 0.5 h
- increase of Cmax relative to fasted state ([1]; high fat diet): 123%
- increase of mean AUCs relative to fasted state ([1]; high fat diet): over 200%
- Cmax [1, 3]: 502 ng/mL
- Vd/F [1, 3]: 4580 L
- AUC ([1]; human, serum, po, 600 mg, single oral dose 600 mg, fasted, balanced data, read-out: AUC(l) (mean)): 1630 ng·h/mL
- AUC ([1]; human, serum, po, 600 mg, single oral dose 600 mg, fasted, balanced data, read-out: AUC(tf) (mean)): 1560 ng·h/mL
- Tmax ([1]; human, serum, po, 600 mg, single oral dose 600 mg, fasted, balanced data, read-out: Tmax, median (range)): 1.5 h
- half-life [1, 3]: 7.61 h
- Cmax [1, 4]: 1150 ng/mL
- Vd/F [1, 4]: 418 L
- AUC ([1]; human, serum, po, 600 mg, single oral dose 600 mg, fed (high fat diet), balanced data, read-out: AUC(l) (mean)): 4440 ng·h/mL
- AUC ([1]; human, serum, po, 600 mg, single oral dose 600 mg, fed (high fat diet), balanced data, read-out: AUC(tf) (mean)): 5090 ng·h/mL
- half-life [1, 4]: 2.01 h
- Cmax [1, 5]: 639 ng/mL
- Vd/F [1, 5]: 1140 L
- AUC ([1]; human, serum, po, 600 mg, single oral dose 600 mg, fed (non fat diet), balanced data, read-out: AUC(l) (mean)): 2750 ng·h/mL
- AUC ([1]; human, serum, po, 600 mg, single oral dose 600 mg, fed (non fat diet), balanced data, read-out: AUC(tf) (mean)): 3040 ng·h/mL
- half-life [1, 5]: 3.2 h
- increase of Cmax relative to fasted state ([1]; non fat diet): 29%
- increase of mean AUCs relative to fasted state ([1]; non fat diet): about 100%
- CL/F (mean) ([1]; single oral dose 600 mg, fasted, balanced data): 407 L/h
- CL/F (mean) ([1]; single oral dose 600 mg, fed (high fat diet), balanced data): 144.0 L/h
- CL/F (mean) ([1]; single oral dose 600 mg, fed (non fat diet), balanced data): 243 L/h
- rate of absorption in the fed state (vs fasted) ([1]; single oral dose 600 mg, fed state): more slowly

Structure (SMILES): CC(C)(C)NC(=O)N[C@H](C(=O)N1C[C@H]2[C@@H]([C@H]1C(=O)NC(CC1CCC1)C(=O)C(N)=O)C2(C)C)C(C)(C)C (stereo partly drawn) [compound of Formula 1a, (1R,5S)-N-[3-Amino-1-(Cyclobutylmethyl)-2,3-Dioxopropyl]-3-[2(S)-[[[(1,1-Dimethylethyl)Amino]Carbonyl]Amino]-3,3-Dimethyl-1-Oxobutyl]-6,6-Dimethyl-3-Azabicyclo[3.1.0]Hexan-2(S)-Carboxamide]
- serum levels at time zero (8 hours after the previous evening dose) compared to 8 hours following the morning dose [2]: higher

From patent US8119602B2, “Administration of HCV protease inhibitors in combination with food to improve bioavailability” (Schering Corporation, priority 2005, dated 2012)
